According to patent publication US4853467A, “Nitrogen containing derivatives of epipodophyllotoxin glucosides” (Bristol-Myers Company, priority 1987, dated 1989):
Converted amounts (≈) assume the structure as drawn.

Experiments:
HCT/VM34 = test: In vitro cytotoxicity assay, HCT/VM34 teniposide-resistant human colon tumor; type: cell-based; settings: HCT/VM34, resistant to teniposide, two values per compound, four-fold serial dilution; for IC50: Homo sapiens
Experimental: (§1) The in vitro cytotoxicity assay involved growing various mammalian tumor cells, including human tumor cells, on microtitre plates employing established tissue culture methods. The concentration of each compound required to inhibit cell growth by 50% (IC50) was then determined by a four-fold serial dilution technique. The validity of the method has been supported by a report published in the "Proceedings of the American Association for Cancer Research", 1984, 25:1891 (Abst. No. 328). Tumor cells of the following types were employed for each compound tested: B16-F10 murine melanoma; Moser human colon; SW900 human lung and three human colon tumor cell lines namely HCT-116, HCT-VM, and HCT-VP, the latter two being resistant to teniposide (VM) and etoposide (VP), respectively. IC50 values less than 500 μg/ml are a positive indicator of antitumor activity. Table II presents IC50 values of various compounds of the present invention against the aforementioned cell lines.

HCT/VP35 = test: In vitro cytotoxicity assay, HCT/VP35 etoposide-resistant human colon tumor; type: cell-based; settings: two values per compound, four-fold serial dilution; for In vitro cytotoxicity IC50, HCT/VP35: HCT/VP35, resistant to etoposide; for IC50: Homo sapiens, HCT/VP35, HCT/VP35, resistant to etoposide
Experimental: as §1

P388 murine leukemia = test: P388 Leukemia, antitumor activity against murine P388 leukemia; type: in vivo, murine (female CDF1 mice); settings: i.p. on days 5 and 8; 10^6 P388 cells i.p.; maximum effect over doses; >=125 considered significant; etoposide values in parentheses are positive control in same experiment
Experimental: Female CDF1 mice were implanted intraperitoneally with a tumor inoculum of 10^6 ascites cells of P388 murine leukemia and treated with various doses of a test compound; four mice were used for each dose level and ten were used as saline-treated control. The compounds were administered by intraperitoneal injection on days 5 and 8 (day 1 being the day of tumor implantation). Antitumor activity was expressed as % T/C which is the ratio of the median survival time (MST) of drug-treated group to the MST of saline-treated control group. A compound showing a % T/C value of 125 or greater is generally considered to have significant antitumor activity in the P388 test. The experiment lasted 31 days at the end of which time the number of survivors was noted. Table I presents the results of the above-described evaluation; only the maximum % T/C and the dose showing the maximum effect are reported.

Moser human colon = test: In vitro cytotoxicity assay, Moser human colon; type: cell-based; settings: two values per compound, four-fold serial dilution; for IC50: Homo sapiens
Experimental: as §1

HCT-116 = test: In vitro cytotoxicity assay, HCT-116 human colon tumor; type: cell-based; settings: two values per compound, four-fold serial dilution; for In vitro cytotoxicity IC50, HCT-116: HCT-116 human colon; for IC50: Homo sapiens, HCT-116, HCT-116 human colon
Experimental: as §1

B16-F10 murine melanoma = test: In vitro cytotoxicity assay, B16-F10 murine melanoma; type: cell-based; settings: two values per compound, four-fold serial dilution; for In vitro cytotoxicity IC50, B-16-F10: B16-F10 murine melanoma; for IC50: Mus musculus, B16-F10, B16-F10 murine melanoma, read-out: In vitro cytotoxicity IC50, B-16-F10
Experimental: as §1

SW900 human lung = test: In vitro cytotoxicity assay, SW900 human lung; type: cell-based; settings: two values per compound, four-fold serial dilution; for IC50: Homo sapiens, SW900, SW900 human lung; for In vitro cytotoxicity IC50, SW900: SW900 human lung
Experimental: as §1

[1] = test system: small cell lung cancer, non-lymphocytic leukemia, and non-seminomatous testicular cancer; settings: AMA Drug Evaluation, 5th Edition, 1983; cited from earlier work

C[C@@H]1OC[C@H]2O[C@@H](O[C@@H]3c4cc5c(cc4[C@@H](C4=CC(=O)C(=O)C(NC(=O)NCCCl)=C4)[C@H]4C(=O)OC[C@@H]43)OCO5)[C@H](O)[C@@H](O)[C@@H]2O1 [Example 29, 5'-Desmethoxy-5'-[[(2-chloroethyl)amino]carbonyl]amino etoposide 3',4'-ortho-quinone]
In vitro cytotoxicity IC50, HCT/VM34 (HCT/VM34): 53 mg/L
IC50 (HCT/VM34): 55 mg/L (≈ 83 µM)
In vitro cytotoxicity IC50, HCT/VP35 (HCT/VP35): 79 mg/L
IC50 (HCT/VP35): 77 mg/L (≈ 116 µM)
Max % T/C (ratio of median survival time of drug-treated group to saline-treated control group) (P388 murine leukemia): 135%
IC50 (Moser human colon): 71 mg/L (≈ 107 µM)
In vitro cytotoxicity IC50, MOSER (Moser human colon): 77 mg/L
In vitro cytotoxicity IC50, HCT-116 (HCT-116): 46 mg/L
IC50 (HCT-116): 53 mg/L (≈ 79.9 µM)
In vitro cytotoxicity IC50, B-16-F10 (B16-F10 murine melanoma): 38 mg/L
IC50 (B16-F10 murine melanoma): 39 mg/L (≈ 58.8 µM)
IC50 (SW900 human lung): > 188 mg/L

COc1cc([C@@H]2c3cc4c(cc3[C@@H](O[C@@H]3O[C@@H]5CO[C@@H](c6cccs6)O[C@H]5[C@H](O)[C@H]3O)[C@H]3COC(=O)[C@H]23)OCO4)cc(OC)c1O [teniposide]
activity in the treatment of cancers [1]: active in the treatment of a variety of cancers including small cell lung cancer, non-lymphocytic leukemia, and non-seminomatous testicular cancer

COc1cc([C@@H]2c3cc4c(cc3[C@@H](O[C@@H]3O[C@@H]5CO[C@@H](C)O[C@H]5[C@H](O)[C@H]3O)[C@H]3COC(=O)[C@H]23)OCO4)cc(N=Cc2cccc([N+](=O)[O-])c2)c1O [Example 22, 3'-Desmethoxy-3'-[[(3-nitro)phenyl]methylene]amino etoposide]
In vitro cytotoxicity IC50, HCT/VM34 (HCT/VM34): 16.2 mg/L
IC50 (HCT/VM34): 21 mg/L (≈ 29.7 µM)
In vitro cytotoxicity IC50, HCT/VP35 (HCT/VP35): 43 mg/L
IC50 (HCT/VP35): 36 mg/L (≈ 50.9 µM)
Max % T/C (ratio of median survival time of drug-treated group to saline-treated control group) (P388 murine leukemia): 235%
IC50 (Moser human colon): > 250 mg/L
In vitro cytotoxicity IC50, HCT-116 (HCT-116): 13.3 mg/L
IC50 (HCT-116): 17 mg/L (≈ 24.1 µM)
In vitro cytotoxicity IC50, B-16-F10 (B16-F10 murine melanoma): 14.1 mg/L
IC50 (B16-F10 murine melanoma): 10.9 mg/L (≈ 15.4 µM)
IC50 (SW900 human lung): > 250 mg/L

COc1cc([C@@H]2c3cc4c(cc3[C@@H](O[C@@H]3O[C@@H]5CO[C@@H](C)O[C@H]5[C@H](O)[C@H]3O)[C@H]3COC(=O)[C@H]23)OCO4)cc(OC)c1O [etoposide]
activity in the treatment of cancers [1]: active in the treatment of a variety of cancers including small cell lung cancer, non-lymphocytic leukemia, and non-seminomatous testicular cancer

COc1cc([C@@H]2c3cc4c(cc3[C@@H](O[C@@H]3O[C@@H]5CO[C@@H](C)O[C@H]5[C@H](O)[C@H]3O)[C@H]3COC(=O)[C@H]23)OCO4)cc(N=Cc2ccsc2)c1O [Example 17, 3'-Desmethyoxy-3'-[(3-thienyl)methylene]amino etoposide]
In vitro cytotoxicity IC50, HCT/VM34 (HCT/VM34): 24 mg/L
IC50 (HCT/VM34): 23 mg/L (≈ 34.4 µM)
In vitro cytotoxicity IC50, HCT/VP35 (HCT/VP35): 44 mg/L
IC50 (HCT/VP35): 31 mg/L (≈ 46.4 µM)
Max % T/C (ratio of median survival time of drug-treated group to saline-treated control group) (P388 murine leukemia): 195%
IC50 (Moser human colon): 45 mg/L (≈ 67.4 µM)
In vitro cytotoxicity IC50, HCT-116 (HCT-116): 10.1 mg/L
IC50 (HCT-116): 12.3 mg/L (≈ 18.4 µM)
In vitro cytotoxicity IC50, B-16-F10 (B16-F10 murine melanoma): 8.4 mg/L
IC50 (B16-F10 murine melanoma): 6.7 mg/L (≈ 10 µM)
IC50 (SW900 human lung): 22 mg/L (≈ 32.9 µM)
In vitro cytotoxicity IC50, SW900 (SW900 human lung): 44 mg/L

COc1cc([C@@H]2c3cc4c(cc3[C@@H](O[C@@H]3O[C@@H]5CO[C@@H](C)O[C@H]5[C@H](O)[C@H]3O)[C@H]3COC(=O)[C@H]23)OCO4)cc(NCN2C(=O)CCC2=O)c1O [Example 13, 3'-Desmethoxy-3'-[(N-succinimido)methyl]amino etoposide]
In vitro cytotoxicity IC50, HCT/VM34 (HCT/VM34): 3.9 mg/L
IC50 (HCT/VM34): 2.7 mg/L (≈ 3.94 µM)
In vitro cytotoxicity IC50, HCT/VP35 (HCT/VP35): 3.3 mg/L
IC50 (HCT/VP35): 3.4 mg/L (≈ 4.97 µM)
Max % T/C (ratio of median survival time of drug-treated group to saline-treated control group) (P388 murine leukemia): 230%
IC50 (Moser human colon): 12.3 mg/L (≈ 18 µM)
In vitro cytotoxicity IC50, MOSER (Moser human colon): 12.1 mg/L
In vitro cytotoxicity IC50, HCT-116 (HCT-116): 4.1 mg/L
IC50 (HCT-116): 3.6 mg/L (≈ 5.26 µM)
In vitro cytotoxicity IC50, B-16-F10 (B16-F10 murine melanoma): 8.7 mg/L
IC50 (B16-F10 murine melanoma): 5.5 mg/L (≈ 8.03 µM)
IC50 (SW900 human lung): 11 mg/L (≈ 16.1 µM)
In vitro cytotoxicity IC50, SW900 (SW900 human lung): 8.6 mg/L

CNc1cc([C@@H]2c3cc4c(cc3[C@@H](O[C@@H]3O[C@@H]5CO[C@@H](C)O[C@H]5[C@H](O)[C@H]3O)[C@H]3COC(=O)[C@H]23)OCO4)cc(OC)c1O [Example 4, 3'-Desmethoxy-3'-methylamine etoposide]
In vitro cytotoxicity IC50, HCT/VM34 (HCT/VM34): 33 mg/L
IC50 (HCT/VM34): 23 mg/L (≈ 39.1 µM)
In vitro cytotoxicity IC50, HCT/VP35 (HCT/VP35): 47 mg/L
IC50 (HCT/VP35): 40 mg/L (≈ 68.1 µM)
Max % T/C (ratio of median survival time of drug-treated group to saline-treated control group) (P388 murine leukemia): 170%
IC50 (Moser human colon): 56 mg/L (≈ 95.3 µM)
In vitro cytotoxicity IC50, MOSER (Moser human colon): 49 mg/L
In vitro cytotoxicity IC50, HCT-116 (HCT-116): 15.7 mg/L
IC50 (HCT-116): 16.2 mg/L (≈ 27.6 µM)
In vitro cytotoxicity IC50, B-16-F10 (B16-F10 murine melanoma): 17.9 mg/L
IC50 (B16-F10 murine melanoma): 13.9 mg/L (≈ 23.7 µM)
IC50 (SW900 human lung): 63 mg/L (≈ 107 µM)

COc1cc([C@@H]2c3cc4c(cc3[C@@H](O[C@@H]3O[C@@H]5CO[C@@H](C)O[C@H]5[C@H](O)[C@H]3O)[C@H]3COC(=O)[C@H]23)OCO4)cc(NC(=O)NCc2ccccc2)c1O [Example 11, 3'-Desmethoxy-3'-([[phenylmethyl)amino]carbonyl]amino etoposide]
In vitro cytotoxicity IC50, HCT/VM34 (HCT/VM34): 26 mg/L
IC50 (HCT/VM34): 24 mg/L (≈ 34 µM)
In vitro cytotoxicity IC50, HCT/VP35 (HCT/VP35): 31 mg/L
IC50 (HCT/VP35): 30 mg/L (≈ 42.5 µM)
Max % T/C (ratio of median survival time of drug-treated group to saline-treated control group) (P388 murine leukemia): 110%
IC50 (Moser human colon): 89 mg/L (≈ 126 µM)
In vitro cytotoxicity IC50, MOSER (Moser human colon): 93 mg/L
In vitro cytotoxicity IC50, HCT-116 (HCT-116): 98 mg/L
IC50 (HCT-116): 58 mg/L (≈ 82.1 µM)
In vitro cytotoxicity IC50, B-16-F10 (B16-F10 murine melanoma): 40 mg/L
IC50 (B16-F10 murine melanoma): 44 mg/L (≈ 62.3 µM)
IC50 (SW900 human lung): 74 mg/L (≈ 105 µM)
In vitro cytotoxicity IC50, SW900 (SW900 human lung): 84 mg/L
